Read-outs that look alike come from different tables or passages of the source.

Consider one compound from patent US12448372B2, “Class of triaromatic compounds targeting bifunctional phosphorylation site of STAT3 and applications thereof” (SHANGHAI YUYAO BIOTECH LTD., priority 2019, dated 2025).

The test system of one assay is DU145. As to the kind of experiment: Cell proliferation by MTS method, DU145. In kind it is cell-based. The note with it: Homo sapiens, DU-145, Prostate Cancer. From the text:
(§1) (2) Detection of Cell Proliferation by MTS Method
(§2) The MTS assay is a method for indirectly determining the number of living cells via colourimetric method. MTS is a newly synthesised tetrazole compound that reflects cell viability, which can be reduced by succinate dehydrogenase in the mitochondria of living cells to an orange-coloured formazan with an absorbance of the reduced product measured at 490 nm being in proportion to the number of living cells, thus reflecting the cell viability. This assay can be used to evaluate the effect of the compound on the proliferation of pancreatic cancer cells, thereby determining the inhibitory effect of the compound on the proliferation of pancreatic cancer cells and to calculate the IC^50. Each cells were inoculated uniformly into a 96-well plate at a density of 1-20×10^3 cells/well, 100 μL per well, and placed in a constant temperature incubator until the cells adhered to the wall. […] Under light-proof conditions, MTS was added and well mixed, the mixture was placed in a constant temperature incubator at 37° C., and the light absorption value were measured using an enzyme marker at 490 nm and the experiment was repeated for three times, IC50 was calculated with GraphPad5 Prism software.
(In general: Tetrazolium assays rely on reduction of a dye to a coloured formazan, in cell work by metabolically active cells.)

The test system of a further assay is HCCC9810. Put plainly: Cell proliferation by MTS method, HCCC9810. In kind it is cell-based. The note with it: Liver Cancer.
Description: as §1, §2

For a further assay, the system named is HCC827. Put plainly: Cell proliferation by MTS method, HCC827. The settings on record: Homo sapiens. In kind it is cell-based. In a few lines: (§3)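 Cells were seeded at 1-20×10^3 per well and allowed to adhere, then exposed to a range of compound concentrations against medium-only controls for 24-96 h. MTS was added in the dark, plates incubated at 37° C., and absorbance read at 490 nm; IC50 from triplicate experiments.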

A further assay has as its system HepG2. As to the kind of experiment: Cell proliferation by MTS method, HepG2. In kind it is cell-based. The settings on record: Homo sapiens, Liver Cancer.
Description: as §1, §2

The next assay addresses STAT3 protein (Homo sapiens, UniProt P40763). Put plainly: Binding activity to STAT3 protein by microscale thermophoresis (MST). The note with it: purified STAT3 recombinant protein. In a few lines: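 His-tag-labelled purified recombinant STAT3 (final 100–200 nM) was mixed with compounds at 16 concentrations in MST buffer and incubated 30 min protected from light. Thermophoresis read in capillaries gave KD values.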
On the technique in general: In MST a laser heats a spot of the sample, and binding alters the fluorescence response.

A further assay deals with Huh7. Put plainly: Cell proliferation by MTS method, Huh7. In kind it is cell-based. The settings on record: Homo sapiens, Huh-7. In short, it runs like this:
as §3

Assay [1] deals with Human pancreatic cancer cells (ASPC-1). As to the kind of experiment: In situ growth metastasis model of pancreatic cancer, ASPC-1 in nude mice. In kind it is in vivo. The note with it: in situ growth metastasis model (ASPC-1), nude mice, 5, 10, 20 mg/kg by gavage once a day, FIG. 4D. The protocol: (2) In situ growth metastasis model of pancreatic cancer. Human pancreatic cancer cells (ASPC-1) were used to bear tumors in the pancreas of age-appropriate nude mice, 6 or more mice in each group. One week after injection of tumour cells, all mice were randomly divided to the control group, WB737-5 mg/kg low dose group, 10 mg/kg medium dose group, 20 mg/kg high dose group and positive compound group. Different doses of WB737 or the positive compound were administered by gavage, and mice of control group were administered the same dose of solvent orally […], dosing once a day. During the experiment, the time and number of mice died due to pancreatic cancer metastasis were counted, and the results of the experiment were counted and survival curves were plotted.

Assay [2] concerns mouse pancreatic cancer cells Pan02-Luci. As to the kind of experiment: Pancreatic cancer liver metastasis model, Pan02-Luci in C57BL/6 mice. In kind it is in vivo. The source says: (1) Animal Experiment on Pancreatic Cancer Liver Metastasis
Pancreatic cancer is a malignant tumor of the gastrointestinal tract, with rapidly progressing condition, high degree of progression, and very limited clinical treatments, and metastasis is very likely to occur in the terminal stage, among which liver metastasis is the most common, and the occurrence of liver metastasis is also an important manifestation of the seriousness of the disease. In the present invention, by injecting pancreatic cancer cells into the spleen, the tumour cells will directed metastasize to the liver, thereby simulating the occurrence and metastasis process of pancreatic cancer liver metastasis. […] Fluorescence detection of mice was performed using the Small Animal In vivo Imaging Instrument (IVIS), according to the obtained fluorescence values, the mice were divided into control group, WB737 5 mg/kg/d low dose group, 10 mg/kg/d medium dose group and 20 mg/kg/d high dose group, and IACS-010759-10 mg/kg positive compound group, and the mean fluorescence values of each group were ensured to be consistent. […] Metastasiss were recorded using small animal in vivo imaging instrument (IVIS) during the experiment, and body weight of the mice was measured every 3-4 days. […]

The subject of the next assay is H460. Put plainly: Cell proliferation by MTS method, H460. In kind it is cell-based. The settings on record: Homo sapiens, NCI-H460, Lung Cancer.
Description: as §1, §2

The next assay deals with H522. Put plainly: Cell proliferation by MTS method, H522. In kind it is cell-based. The settings on record: Homo sapiens, NCI-H522, Lung Cancer.
Description: as §1, §2

The next assay relates to CFPAC-1. As to the kind of experiment: Cell proliferation by MTS method, CFPAC-1. The note with it: Homo sapiens, Pancreatic Cancer. In kind it is cell-based.
Description: as §1, §2

Sequence of STAT3 protein (P40763 whole entry): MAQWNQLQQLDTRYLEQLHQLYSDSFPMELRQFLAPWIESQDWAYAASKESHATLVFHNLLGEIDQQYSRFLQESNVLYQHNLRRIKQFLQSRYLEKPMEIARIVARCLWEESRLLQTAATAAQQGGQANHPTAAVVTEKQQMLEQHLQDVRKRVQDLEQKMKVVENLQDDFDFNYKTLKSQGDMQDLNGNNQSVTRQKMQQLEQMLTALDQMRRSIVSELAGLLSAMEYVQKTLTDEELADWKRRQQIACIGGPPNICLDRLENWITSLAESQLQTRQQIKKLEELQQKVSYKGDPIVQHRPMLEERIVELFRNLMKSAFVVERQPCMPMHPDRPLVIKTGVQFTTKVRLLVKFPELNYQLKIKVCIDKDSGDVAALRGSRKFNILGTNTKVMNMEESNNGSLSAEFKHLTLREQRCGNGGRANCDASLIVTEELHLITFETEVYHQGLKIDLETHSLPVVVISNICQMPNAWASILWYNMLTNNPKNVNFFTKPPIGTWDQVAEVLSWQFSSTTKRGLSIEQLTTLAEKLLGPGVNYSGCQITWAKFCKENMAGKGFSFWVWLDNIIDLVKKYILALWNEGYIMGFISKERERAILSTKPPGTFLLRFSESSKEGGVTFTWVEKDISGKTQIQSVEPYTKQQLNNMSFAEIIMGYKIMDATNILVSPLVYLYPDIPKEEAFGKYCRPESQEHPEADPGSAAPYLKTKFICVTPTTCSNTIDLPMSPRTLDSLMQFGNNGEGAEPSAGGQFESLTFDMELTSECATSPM

For orientation: Kd means the concentration at which binding is half-saturated. Consider `Cn1c(C(=O)N2CCN(Cc3ccc(OCC(F)(F)F)cc3)CC2)cc2ccc(Oc3cnc(-c4nc(-c5ccc(C(F)(F)F)cc5)no4)cn3)cc21` [Example 6, (6-((5-(3-(4-(trifluoromethyl)phenyl)-1,2,4-oxadiazol-5-yl)pyrazin-2-yl)oxy)1-methyl-1H-indol-2-yl)(4-(4-(2,2,2-trifluoroethoxy)benzyl)piperazin-1-yl)methanone], for which the IC50 is 0.0124 µM in the assay with DU145; 0.0733 µM with HCCC9810; 0.5 nM in the assay on HCC827 (Lung Cancer, HCC827, read-out: IC50); < 10 nM with HCC827 (Table 1, HCC827, read-out: Tumour cell proliferative activity/IC50(nM) Lung Cancer HCC827); 0.012 µM in the assay on HepG2; 8.6 nM in the assay on Huh7 (Liver Cancer, Huh7, read-out: IC50). Further, the IC50 was < 10 nM in the assay with Huh7 (Table 1, Huh7, read-out: Tumour cell proliferative activity/IC50(nM) Liver Cancer Huh7); 0.0046 µM in the assay with H460; 0.012 µM in the assay on H522; 0.0031 µM in the assay on CFPAC-1. The dissociation constant Kd at STAT3 protein was < 0.01 µM. The survival of mice result in [1] is “significantly prolongs the survival of mice”; in assay [2] (pancreatic tumour liver metastasis model (Pan02), 5, 10, 20 mg/kg by gavage once a day, FIG. 4C) it was “significantly prolongs the survival of mice”. In addition, the “liver metastasis of tumours” value in assay [2] (Pan02-Luci injected into spleen, C57BL/6 mice, 5, 10, 20 mg/kg/d by gavage, FIG. 4A/4B) is on record as “dose-dependently inhibits liver metastasis of tumours”.
